Details: Liquid

CCCOCC(C)O (centres undefined) [1-propoxy-2-propanol]
Details | vapor or sublimation pressure [kPa]
298.15 K | 0.341
303.15 K | 0.481
308.15 K | 0.672
313.15 K | 0.937
318.15 K | 1.271
323.15 K | 1.707
328.15 K | 2.256
333.15 K | 2.967
338.15 K | 3.839
343.15 K | 4.951
348.15 K | 6.29
353.15 K | 7.963
358.15 K | 9.95
363.15 K | 12.38
368.15 K | 15.27
373.15 K | 18.7
378.15 K | 22.65
383.15 K | 27.42
388.15 K | 32.8
393.15 K | 39.18
398.15 K | 46.38
403.15 K | 54.75
408.15 K | 64.1
413.15 K | 74.98
